The record followed here is US10633338B2, “Binding Function 3 (BF3) site compounds as therapeutics and methods for their use” (THE UNIVERSITY OF BRITISH COLUMBIA, priority 2014, dated 2020).

Read-outs that look alike come from different tables or passages of the source.

For one test, the target named is T1, androgen receptor (AR) (Homo sapiens, UniProt P10275, T878A).
T1 construct: stably transfected eGFP-expressing LNCaP human prostate cancer cells (LN-ARR2PB-eGFP) containing an androgen responsive probasin-derived promoter; endogenous in cells; host or cells: LNCaP (LN-ARR2PB-eGFP)
T1 sequence (P10275 1-920 T878A): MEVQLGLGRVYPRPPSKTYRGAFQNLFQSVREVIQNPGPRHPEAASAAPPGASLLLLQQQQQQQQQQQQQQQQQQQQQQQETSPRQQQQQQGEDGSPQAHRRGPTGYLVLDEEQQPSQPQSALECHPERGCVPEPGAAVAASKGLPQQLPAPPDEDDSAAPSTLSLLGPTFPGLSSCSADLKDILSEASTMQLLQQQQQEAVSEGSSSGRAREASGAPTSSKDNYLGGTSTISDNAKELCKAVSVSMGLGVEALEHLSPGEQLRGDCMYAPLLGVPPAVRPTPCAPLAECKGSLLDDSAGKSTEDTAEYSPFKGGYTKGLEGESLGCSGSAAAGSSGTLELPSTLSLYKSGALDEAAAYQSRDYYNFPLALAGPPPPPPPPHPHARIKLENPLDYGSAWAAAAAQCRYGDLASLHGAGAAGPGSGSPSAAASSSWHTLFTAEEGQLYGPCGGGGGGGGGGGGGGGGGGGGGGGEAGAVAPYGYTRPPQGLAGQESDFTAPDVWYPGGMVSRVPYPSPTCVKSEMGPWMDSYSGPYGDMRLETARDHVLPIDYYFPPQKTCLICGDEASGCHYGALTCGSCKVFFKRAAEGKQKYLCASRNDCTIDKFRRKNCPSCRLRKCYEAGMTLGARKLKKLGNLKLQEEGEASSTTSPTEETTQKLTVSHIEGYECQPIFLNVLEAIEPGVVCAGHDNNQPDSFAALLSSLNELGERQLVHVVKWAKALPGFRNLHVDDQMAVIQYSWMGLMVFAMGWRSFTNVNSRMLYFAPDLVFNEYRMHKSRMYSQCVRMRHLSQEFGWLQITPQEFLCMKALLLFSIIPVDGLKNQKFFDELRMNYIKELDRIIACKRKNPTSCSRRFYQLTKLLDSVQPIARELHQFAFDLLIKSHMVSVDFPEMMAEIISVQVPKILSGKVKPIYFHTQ
Briefly: eGFP cellular AR transcription assay. Format: cell-based. The procedure, abridged:
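AR transcriptional activity is read as eGFP expression from a probasin-derived androgen-responsive promoter. Compound titrated 0-100 μM in the presence of 0.1 nM R1881; 35,000 cells/well.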

The subject of a further test is PSA. Put plainly: Prostate Surface Antigen (PSA) assay, PSA excreted into the media. Type of test: cell-based, human. To be noted: same plates as eGFP assay. Here is the method:
The evaluation of PSA excreted into the media was performed in parallel to the eGFP assay using the same plates (see above description). After the cells were incubated for 3 days 150 μl of the media was taken from each well, and added to 150 μl of PBS.

The mark [1] stands for this setting: LN-ARR2PBeGFP LNCaP cells, 0.1 nM R1881, 3 days incubation.
[2] abbreviates: PSA excreted into media, 3 days incubation.
[3] abbreviates: LN-ARR2PBeGFP LNCaP cells, 0.1 nM R1881, 3 days incubation, read-out: eGFP IC50.
[4] abbreviates: Homo sapiens, 72 h, PSA excreted into media, 3 days incubation, read-out: PSA IC50.
The mark [5] stands for this setting: Homo sapiens, 72 h, media after 3 days, read-out: IC50 (PSA).

For `Cc1cc(Cl)c2[nH]ccc2c1` [Compound 13724], on androgen receptor (AR) (setting [1]), the “eGFP IC50” value was “Inactive”. In the test with PSA (setting [2]), the “PSA IC50” value is listed as “Inactive”.
Consider `Fc1ccc2cc[nH]c2c1Cl` [Compound 13725], for which the “eGFP IC50” value on androgen receptor (AR) (setting [1]) is reported as “Inactive”. The “PSA IC50” value in the test on PSA (setting [2]) is on record as “Inactive”.
Take `Fc1ccc(Cl)c2[nH]ccc12` [Compound 13726]: at androgen receptor (AR) (setting [1]), the “eGFP IC50” value was “Inactive”. The “PSA IC50” value in the test with PSA (setting [2]) was “Inactive”.
Turning to `Cc1ccc2ccc(Cl)nc2c1` [Compound 13727], at androgen receptor (AR) (setting [1]), the “eGFP IC50” value is given as “Inactive”. For the same molecule, in the test on PSA (setting [2]), the “PSA IC50” value is given as “Inactive”.
On to `Fc1ccc2ccc(Cl)nc2c1` [Compound 13728], for which the “eGFP IC50” value at androgen receptor (AR) (setting [1]) is given as “Inactive”. For the same molecule, the “PSA IC50” value in the test on PSA (setting [2]) is given as “Inactive”.
Regarding `Fc1cccc2ccc(Cl)nc12` [Compound 13729], at androgen receptor (AR) (setting [1]), the “eGFP IC50” value is recorded as “Inactive”. Further, the “PSA IC50” value with PSA (setting [2]) was “Inactive”.
As to `N#Cc1cc(F)cc2c(-c3ccc4ccc(F)cc4n3)c[nH]c12` [Compound 13730], the IC50 (commonly the point on the concentration scale where inhibition reaches its midpoint) at androgen receptor (AR) (setting [3]) is 149 nM; with PSA (setting [4]) it was 198 nM.
For `CNC(=O)c1cccc2nc(-c3c[nH]c4c(C#N)cc(F)cc34)ccc12` [Compound 13731] the same measures were 304 nM and 255 nM.
Turning to `Cc1cccc2c(-c3ccc(-c4ccccc4)cc3)c[nH]c12` [Compound 13733], the IC50 stood at 3810 nM at androgen receptor (AR) (setting [3]) and 919 nM with PSA (setting [4]).
In the case of `COC(=O)c1cccc2c(-c3ccc(Br)cc3)c[nH]c12` [Compound 13736], the IC50 at androgen receptor (AR) (setting [3]) turned out to be 620 nM; in the test with PSA (setting [4]), 680 nM.
In the case of `O=[N+]([O-])c1cccc2c(-c3ccc(Br)cc3)c[nH]c12` [Compound 13738], the 50% inhibitory concentration (IC50) on androgen receptor (AR) (setting [3]) turned out to be 83 nM; in the test on PSA (setting [4]), 62 nM.
For `FC(F)(F)c1ccc(-c2c[nH]c3ccccc23)nc1` [Compound 13741] the same measures were 290 nM and 290 nM.
For `Fc1ccc(-c2c[nH]c3ccccc23)nc1` [Compound 13742], in that order: 220 nM and 200 nM.
Consider `FC(F)(F)c1ccc(-c2c[nH]c3ccccc23)cc1` [Compound 13743], for which the IC50 on androgen receptor (AR) (setting [3]) was found to be 380 nM; in the test on PSA (setting [4]), 390 nM.
For `Cc1cccc2c(-c3ccc4cccnc4c3)c[nH]c12` [Compound 13744] the same measures were 760 nM and 750 nM.
As for `FC(F)(F)c1ccccc1-c1c[nH]c2ccccc12` [Compound 13745], the IC50 worked out at 1010 nM at androgen receptor (AR) (setting [3]) and 950 nM in the test with PSA (setting [4]).
As for `NC(=O)c1cccc2nc(-c3c[nH]c4c(Cl)cc(F)cc34)ccc12` [Compound 13746], the “eGFP IC50” value at androgen receptor (AR) (setting [1]) is “Inactive”. Besides, in the test on PSA (setting [2]), the “PSA IC50” value is reported as “Inactive”.
In the case of `NC(=O)c1cccc2nc(-c3c[nH]c4c(F)cc(F)cc34)ccc12` [Compound 13747], the “eGFP IC50” value on androgen receptor (AR) (setting [1]) is on record as “Inactive”. Further, the “PSA IC50” value in the test on PSA (setting [2]) is “Inactive”.
As for `Clc1cccc2nc(-c3c[nH]c4c(Cl)cccc34)ccc12` [Compound 13748], at androgen receptor (AR) (setting [1]), the “eGFP IC50” value is “Inactive”. The “PSA IC50” value in the test with PSA (setting [2]) is reported as “Inactive”.
Consider `Fc1ccc2nc(-c3c[nH]c4c(F)c(F)c(F)cc34)ccc2c1` [Compound 13749], for which the results for the IC50 on androgen receptor (AR) (setting [3]) and with PSA (setting [4]) were 290 nM and 220 nM, respectively.
Consider `Fc1cc2c(-c3ccc4c(Cl)cccc4n3)c[nH]c2c(F)c1F` [Compound 13750], for which, on androgen receptor (AR) (setting [1]), the “eGFP IC50” value is listed as “Inactive”. The “PSA IC50” value in the test on PSA (setting [2]) was “Inactive”.
On to `Fc1cc2c(-c3ccc4c(F)cccc4n3)c[nH]c2c(F)c1F` [Compound 13751], for which the “eGFP IC50” value on androgen receptor (AR) (setting [1]) was “Inactive”. Besides, the “PSA IC50” value with PSA (setting [2]) is reported as “Inactive”.
With `Fc1cc(F)c2[nH]cc(-c3ccc4cccc(F)c4n3)c2c1F` [Compound 13752], the IC50 at androgen receptor (AR) (setting [3]) was 370 nM; in the test on PSA (setting [4]) it was 260 nM.
As to `Fc1cc(F)c2[nH]cc(-c3ccc4c(Cl)cccc4n3)c2c1F` [Compound 13753], the figures for the IC50 on androgen receptor (AR) (setting [3]) and in the test on PSA (setting [4]) were 160 nM and 98 nM, respectively.
With `CNC(=O)c1ccc(Cl)c2nc(-c3c[nH]c4c(F)c(F)c(F)cc34)ccc12` [Compound 13755], the IC50 at androgen receptor (AR) (setting [3]) and in the test on PSA (setting [4]) was 470 nM throughout.
On to `Cc1cccc2c(-c3ccc4ncsc4c3)c[nH]c12` [Compound 13757], for which, on androgen receptor (AR) (setting [1]), the “eGFP IC50” value was “Inactive”. Moreover, in the test on PSA (setting [2]), the “PSA IC50” value is given as “Inactive”.
As for `Cc1cccc2c(-c3ccc4scnc4c3)c[nH]c12` [Compound 13758], the “eGFP IC50” value at androgen receptor (AR) (setting [1]) is “Inactive”. For the same molecule, the “PSA IC50” value in the test on PSA (setting [2]) is “Inactive”.
`Cc1cccc2c(-c3ccc4ocnc4c3)c[nH]c12` [Compound 13759]: the IC50 on androgen receptor (AR) (setting [3]) stood at 300 nM; in the test on PSA (setting [4]), 270 nM.
For the molecule `Cc1cccc2c(-c3nc4ccccc4s3)c[nH]c12` [Compound 13760], the IC50 at androgen receptor (AR) (setting [3]) was found to be 100 nM; in the test on PSA (setting [4]), 52 nM.
Turning to `Fc1ccc2nc(-c3c[nH]c4c(F)c(F)c(F)cc34)cnc2c1` [Compound 13762], the values for the IC50 on androgen receptor (AR) (setting [3]) and in the test with PSA (setting [4]) were 479 nM and 429 nM, respectively.
In the case of `Fc1ccc2c(-c3ccc4cccnc4c3)c[nH]c2c1` [Compound 13764], the half-inhibitory concentration (IC50) on androgen receptor (AR) (setting [3]) came to 100 nM; with PSA (setting [4]), 82 nM; in the test on PSA (setting [5]) it was 82 nM.
In the case of `Cc1cccc2c(-c3ccc4cnccc4c3)c[nH]c12` [Compound 13765], on androgen receptor (AR) (LN-ARR2PB-eGFP LNCaP cells, 0.1 nM R1881, 3 days, 0-100 μM compound), the “IC50 (eGFP)” value was “IC50 (eGFP) = inactive”. The “eGFP IC50” value at androgen receptor (AR) (setting [1]) is reported as “Inactive”. The “PSA IC50” value with PSA (setting [2]) is “Inactive”. In the test on PSA (media after 3 days), the “IC50 (PSA)” value is “IC50 (PSA) = inactive”.
Consider `Cc1cccc2c(-c3nc(Br)cs3)c[nH]c12` [Compound 13766], for which the IC50 at androgen receptor (AR) (LN-ARR2PB-eGFP LNCaP cells, 0.1 nM R1881, 3 days, 0-100 μM compound, read-out: IC50 (eGFP)) was determined as 45 nM; at androgen receptor (AR) (setting [3]), 45 nM; in the test with PSA (setting [4]) it was 20 nM; in the test on PSA (setting [5]), 20 nM.
On to `Fc1cc2c(-c3ccc4cccnc4c3)c[nH]c2c(F)c1F` [Compound 13770], for which the IC50 was 100 nM at androgen receptor (AR) (setting [3]) and 17 nM with PSA (setting [4]).
For `CNC(=O)c1cccc2nc(-c3c[nH]c4c(C)c(F)c(F)cc34)ccc12` [Compound 13771] the same measures were 200 nM and 90 nM.
With `Fc1ccc2ccc(-c3c[nH]c4c(F)c(F)c(F)cc34)nc2c1` [Compound 13772], the IC50 on androgen receptor (AR) (setting [3]) was 200 nM; in the test with PSA (setting [4]), 172 nM.
Take `Fc1cc2c(-c3ccc4cccc(Cl)c4n3)c[nH]c2c(F)c1F` [Compound 13773]: the IC50 at androgen receptor (AR) (setting [3]) amounted to 300 nM; in the test on PSA (setting [4]), 303 nM.
Consider `Fc1cc2c(-c3ccc4cccc(F)c4n3)c[nH]c2c(F)c1F` [Compound 13774], for which the IC50 was found to be 700 nM on androgen receptor (AR) (setting [3]) and 773 nM in the test on PSA (setting [4]).
`Fc1ccc2nc(-c3c[nH]c4c(F)c(F)c(F)cc34)ccc2c1` [Compound 13776]: the IC50 at androgen receptor (AR) (setting [3]) worked out at 210 nM; in the test on PSA (PSA excreted into media, 3 days incubation, read-out: PSA IC50) it was 190 nM.
